{"source": "patent US10585102B2", "about": "“Characterization of cancer using detection of activated leukocyte cell adhesion molecule (ALCAM) shedding” (Vanderbilt University, priority 2012, dated 2020)", "molecules": {"B1": {"name": "ALCAM: circulating soluble Activated Leukocyte Cell Adhesion Molecule (shed ectodomain) in serum (protein, UniProt Q13740 28-527, looked up)", "extracellular domain": "WYTVNSAYGDTIIIPCRLDVPQNLMFGKWKYEKPDGSPVFIAFRSSTKKSVQYDDVPEYKDRLNLSENYTLSISNARISDEKRFVCMLVTEDNVFEAPTIVKVFKQPSKPEIVSKALFLETEQLKKLGDCISEDSYPDGNITWYRNGKVLHPLEGAVVIIFKKEMDPVTQLYTMTSTLEYKTTKADIQMPFTCSVTYYGPSGQKTIHSEQAVFDIYYPTEQVTIQVLPPKNAIKEGDNITLKCLGNGNPPPEEFLFYLPGQPEGIRSSNTYTLTDVRRNATGDYKCSLIDKKSMIASTAITVHYLDLSLNPSGEVTRQIGDALPVSCTISASRNATVVWMKDNIRLRSSPSFSSLHYQDAGNYVCETALQEVEGLKKRESLTLIVEGKPQIKMTKKTDPSGLSKTIICHVEGFPKPAIQWTITGSGSVINQTEESPYINGRYYSKIIISPEENVTLTCTAENQLERTVNSLNVSAISIPEHDEADEISDENREKVNDQAK", "modifications": "extracellular domain shed soluble form"}}, "key": {"[1]": {"system": "PC3 cells", "assay": "ALCAM expression in response to TGFβ (RT-PCR, Western blot)", "type": "cell-based, human", "description": "(§1) SDS-PAGE and immunoblotting. Cells (2.5×10^5) were plated in 6-well dishes. After 24 h, cells were serum starved in Opti-MEM for 16 h and then treated in the presence or absence of indicated growth factors or inhibitors, for 48 h. After that, the cells were lysed in TNE Lysis Buffer (20 mM Tris-Cl [pH 7.4], 0.5 mM EDTA, 1% Triton X-100, 150 mM NaCl, protease inhibitor cocktail (sigma), 1 mM phenylmethylsulfonyl fluoride). Total protein in the lysates was quantified using BCA assay (BioRad). Conditioned media samples were concentrated with microcon centrifugal filters (Millipore) following manufacturers protocol, which were eluted directly in 5× sample buffer for Western blot analysis. Protein loading for conditioned-medium samples for Western blot analysis was adjusted according to the total protein in cell lysates. Conditioned media and total protein was subjected to SDS-PAGE and electrophoretic transfer to polyvinylidene difluoride membranes (Immobilon P, Millipore, Inc., Bedford, Mass.). Immunodetection was done by conventional chemiluminescence\n(§2) The mRNA samples were prepared from tumor cells lysed in TRI Reagent (Ambion) and purified using phenol extraction, followed by real-time polymerase chain reaction (RT-PCR). The following qPCR primers were used ALCAM, […] (forward) and […] (reverse); ADAM17, […] (forward) and […] (reverse); and glyceraldehyde-3-phosphate dehydrogenase, […] (forward) and TTCCCCATGGTGTCTGAGC (reverse).\n(§3) ALCAM is proteolytically shed from PC3 cells (FIG. 21). Absence of the cytoplasmic tail confirms that the ectodomain is shed (FIG. 21A). Moreover, ALCAM is absent from PC3-derived exosomes ensuring that the ectodomain is shed and not released with cell-derived microparticles (FIG. 21B). Since prostate cancer disseminates predominantly to bone we selected cytokines thought to be involved in this process, including TGFβ. […] To further explore the response to exogenous stimulation with TGFβ, ALCAM expression in PC3 cells was compared to ALCAM expression in LNCaP cells which are unable to respond to the cytokine because they lack TGFβ receptor type I (FIGS. 23B and 23C). […] TGFβ-induced expression in PC3 cells could be abrogated with the small molecule inhibitor SB431542 (FIG. 23D, 10 μm; Sigma) while TGFβ-induced ALCAM mRNA and protein expression could be restored in LNCaP cells when the cells were transfected with dominant-active TGFβ receptor type I (FIGS. 23E and 23F)."}, "[2]": {"system": "LNCaP cells", "assay": "ALCAM expression in response to TGFβ (RT-PCR, Western blot)", "type": "cell-based, human", "conditions": "lack TGFβ receptor type I", "description": "as §1, §2, §3"}, "[3]": {"system": "PC3 cells", "assay": "ALCAM shedding in conditioned media of cytokine-treated cells (ELISA)", "type": "cell-based, human", "conditions": "PC3 concentrated conditioned media; 8 agents tested"}, "[4]": {"system": "Rap1A", "assay": "Rap1 activation assay (GTP-bound Rap1A pull-down, immunoblot)", "type": "cell-based", "conditions": "HEp3 cells; PKCα inhibited by pharmacological means", "protocol": "Rap1 activation was analyzed using the Rap1 activation kit (Chemicon). All treatments were performed in the presence of serum free/insulin free media. Cells to be assayed were washed with ice cold PBS and lysed in RIPA like Rap1 buffer (10% glycerol, 50 mM Tris/HCl, 150 mM NaCl, 5 mM phenylmethylsulfonyl fluoride, 1 mM sodium orthovanadate). The lysates were pushed through a 25 gauge syringe and cleared by centrifugation at max speed at 4 degrees for 10 min. Equal amounts of lysates were immunoprecipitated with Ra1GDS RBD conjugated agarose beads for 45 minutes at 4° C. After washing the beads where resuspended with sample buffer and boiled for 5 minutes. The immunoprecipitates were separated by SDS-Page as mentioned above, transferred to PVDF membranes, probed with the anti-Rap1 antibody and horse radish peroxidase-conjugated secondary antibody. After washing the membranes were developed by autoradiography.\nTo evaluate whether Rap1A was activated in response to CD151 clustering as well as ALCAM-ALCAM ligation, HEp3 cells were treated with 1A5 or seeded on ALCAM-FC for up to 48 hrs. Active Rap1A in the cells was evaluated by immunblotting of GTP-bound Rap1A affinity purified from lysates with Ra1-GDS beads."}, "[5]": {"system": "HEp3 cells", "assay": "Transwell migration with pathway inhibitors, with or without anti-CD151 antibody 1A5", "type": "cell-based, human", "protocol": "In Vitro Transwell Migration: Tumor cells in a single cell suspension were plated into the top chamber of 8 μm transwell (Costar) inserts in the presence of serum free/insulin free media. Cell culture media containing 10% fetal bovine serum was placed in the bottom chamber to serve as a chemoattractant. Migration assays were carried out for 12 hrs in a 37° C. cell culture incubator containing 5% CO2. The top surface of the inserts was cleaned with a cotton swab soaked with PBS to remove the non-migrated cells. The transwell inserts were subsequently fixed in methanol and stained with 0.2% crystal violet. The number of migrated cells was counted in 3 independent fields under 20× magnification with a light microscope.\nTranswell migration assays were performed in the presence or absence of each inhibitor together with or without the anti-CD151 antibody 1A5."}, "[6]": {"assay": "In vivo ALCAM serum half-life", "conditions": "serum injected retrorbitally in ALCAM KO mice; ELISA", "description": "Serum was harvested from ALCAM wild-type, mixed background, mice and pooled. Combined serum collected from WT mice was injected retrorbitally in ALCAM KO mice (100 μl/mouse). ALCAM KO mice were pre-bled via saphenous vein bleed, and then bled at 10 mins, 2 hours, 4 hours, 24 hours and 48 hours (n=2/time point; total n=10). WT pooled serum was used as ELISA control to quantitatively determine ALCAM serum half-life.\nTo determine if tumor-derived ALCAM is the source of elevated circulating ALCAM, species-specific antibodies were used to monitor circulating levels of both host (mouse) ALCAM and tumor (human) ALCAM longitudinally during orthotopic and subcutaneous growth of PC3 cells (FIG. 24). The half-life of human ALCAM in the circulation of its mouse host was determined to confirm that tumor-derived ALCAM could act as a stable biomarker in vivo (FIG. 25)."}, "[7]": {"conditions": "HEp3 cells, ± anti-CD151 antibody 1A5"}}, "note": "Like-named read-outs stand apart in the source and are kept apart here."}
{"molecule": "TGFβ", "values": [{"measurement": "ALCAM gene transcription (quantitative RT-PCR)", "setting": "[1]; 10 ng/ml TGFβ, 48 hrs", "result": "able to induce ALCAM gene transcription in PC3"}, {"measurement": "ALCAM protein expression and ectodomain shedding (Western blot)", "setting": "[1]; cell lysate and conditioned media", "result": "increased levels of ALCAM protein expression and ectodomain shedding"}, {"measurement": "response of ALCAM expression to TGFβ", "setting": "[2]", "result": "did not respond"}, {"measurement": "ALCAM shedding", "setting": "[3]", "result": "promoted ALCAM shedding relative to overall total protein increase"}]}
{"molecule": "NC(=O)c1ccc(-c2nc(-c3ccc4c(c3)OCO4)c(-c3ccccn3)[nH]2)cc1", "note": "[SB431542]", "values": [{"measurement": "TGFβ-induced ALCAM expression", "setting": "[1]; 10 μm inhibitor, 10 ng/ml TGFβ, 48 hrs", "result": "abrogated"}]}
{"molecule": "COc1ccc2c(c[n+](C)c3c4cc5c(cc4ccc23)OCO5)c1OC", "note": "[Chelerythrin]", "values": [{"measurement": "Rap1A activation by 1A5 after PKCα disruption", "setting": "[4]", "result": "1A5 was unable to promote Rap1A activation"}, {"measurement": "Transwell migration in the presence or absence of inhibitor, with or without 1A5", "setting": "[5]; [7]", "result": "allowed for migration of untreated cells but prevented 1A5 from inhibiting migration"}]}
{"molecule": "N#CC(=C(/N)Sc1ccccc1N)/C(C#N)=C(\\N)Sc1ccccc1N", "note": "[U0126]", "values": [{"measurement": "Transwell migration in the presence or absence of inhibitor, with or without 1A5", "setting": "[5]", "result": "inhibited migration independent of anti-CD151 antibody treatment"}]}
{"molecule": "COC(=O)[C@H](CC(C)C)NC(=O)c1ccc(NC[C@@H](N)CS)cc1-c1cccc2ccccc12", "note": "[GGTI-298]", "values": [{"measurement": "Transwell migration in the presence or absence of inhibitor, with or without 1A5", "setting": "[5]; [7]", "result": "allowed for migration of untreated cells but prevented 1A5 from inhibiting migration"}]}
{"molecule": "B1", "values": [{"measurement": "half-life in circulation", "setting": "[6]", "result": 17, "unit": "h"}]}
